Test results: US20110039770A1, “INHIBITORS OF PROTEIN KINASE C ISOFORMS AND USES THEREOF” (PHARMAGAP INC., priority 2005, published 2011)
Read-outs that look alike come from different tables or passages of the source. Where a SMILES comes first, the peptide text is derived from it. Bridges are numbered along the chain shown (N, C = ends). Roman numbers before positions name the chains, in order. [ ]: non-standard residue; d: D form. The star is where a group is joined. PNA(A) = NCCN(CC(=O)*)C(=O)Cn1cnc2c(N)ncnc21; Adenin9ylacetyl = Nc1ncnc2c1ncn2CC(=O)*; Gly(N-2-aminoethyl) = NCCNCC(=O)O

Experiments:
PKC delta [1] = biological target: T1, PKC delta (Homo sapiens, UniProt Q05655); experiment: Kinase-Glo Luminescent Kinase Assay; format: biochemical
Procedure: Compounds TIM 10, 11, 13, 14, 15, and 18-22 (see Table 28) were tested for their ability to inhibit the activity of PKC-alpha, beta 1, delta and epsilon isoforms the Kinase-Glo™ Luminescent Kinase Assay (Promega, Cat # V6712/3/4) following the manufacturer's instructions.

PKC beta 2 = biological target: T2, PKC beta 2 (Homo sapiens, UniProt P05771); experiment: PepTag Non-Radioactive PKC Assay, purified isoform; format: biochemical; conditions: negative = activation
T2 construct: purchased
Procedure: (§1) The inhibitory effect of the PKI compounds 1 to 10 on purified commercially available isoforms representative of the 3 classes of PKC: cPKC (alpha, betaI/II) nPKC (delta and epsilon) aPKC (zeta) was assayed using the PepTag® Non-Radioactive PKC Assay (Promega, Madison, Wis.). The zeta isoform was tested with this assay although its affinity for the substrate provided in the kit was relatively low. The amount of enzyme in the reaction mixture for the PKC zeta assays was multiplied by 2. The assay was used following the manufacturer's recommendations. The principle of the assay is based on the difference in charge of phosphorylated (negatively charged) form versus the non-phoshorylated form of a fluorescent substrate. The two forms can be separated by gel electrophoresis and the negatively charged band excised and the fluorescence measured (exc. 440 nm and em. 590 nm) in 96 well plates on a Galaxy FluoStar plate reader. The PKI compounds were added to the assay mixture at 3 doses: 150, 300 and 600 μM and an extra 75 μM when the inhibition was too high. The assay is strictly biochemical and the doses of the compounds used, therefore, are generally not correlative with in vivo situations.

PKC delta [2] = biological target: T1, PKC delta; experiment: PepTag Non-Radioactive PKC Assay, purified isoform; format: biochemical; conditions: negative = activation
Procedure: as §1

PKC alpha = PKC alpha (Homo sapiens, UniProt P17252); experiment: PepTag Non-Radioactive PKC Assay, purified isoform; format: biochemical; design: purchased; conditions: negative = activation
Procedure: as §1

PKC zeta = biological target: T3, PKC zeta (Homo sapiens, UniProt Q05513); experiment: PepTag Non-Radioactive PKC Assay, purified isoform; format: biochemical; design: purchased; conditions: enzyme amount x2, negative = activation
T3 sequence (Q05513 1-592): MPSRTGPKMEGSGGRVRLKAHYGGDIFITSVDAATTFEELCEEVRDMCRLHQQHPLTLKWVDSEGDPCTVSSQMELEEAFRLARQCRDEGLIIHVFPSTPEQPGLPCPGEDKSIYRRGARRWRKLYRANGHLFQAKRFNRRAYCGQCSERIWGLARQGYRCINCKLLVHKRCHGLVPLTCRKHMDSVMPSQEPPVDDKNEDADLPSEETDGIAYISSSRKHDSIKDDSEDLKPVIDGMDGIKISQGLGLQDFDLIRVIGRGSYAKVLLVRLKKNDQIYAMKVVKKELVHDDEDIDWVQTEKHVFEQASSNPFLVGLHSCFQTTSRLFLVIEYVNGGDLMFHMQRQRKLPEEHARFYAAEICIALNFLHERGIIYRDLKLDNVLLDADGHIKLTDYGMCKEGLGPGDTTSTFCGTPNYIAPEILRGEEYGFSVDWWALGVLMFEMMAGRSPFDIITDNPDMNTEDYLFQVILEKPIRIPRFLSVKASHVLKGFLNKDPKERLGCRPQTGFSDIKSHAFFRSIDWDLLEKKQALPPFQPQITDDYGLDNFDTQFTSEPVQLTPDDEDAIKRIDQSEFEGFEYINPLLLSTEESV
Procedure: as §1

PKC beta 1 = PKC beta 1 (Homo sapiens, UniProt P05771); experiment: PepTag Non-Radioactive PKC Assay, purified isoform; format: biochemical; design: purchased; conditions: negative = activation
Procedure: as §1

PKC epsilon = biological target: T4, PKC epsilon (Homo sapiens, UniProt Q02156); experiment: PepTag Non-Radioactive PKC Assay, purified isoform; format: biochemical; design: purchased; conditions: negative = activation
T4 sequence (Q02156 1-737): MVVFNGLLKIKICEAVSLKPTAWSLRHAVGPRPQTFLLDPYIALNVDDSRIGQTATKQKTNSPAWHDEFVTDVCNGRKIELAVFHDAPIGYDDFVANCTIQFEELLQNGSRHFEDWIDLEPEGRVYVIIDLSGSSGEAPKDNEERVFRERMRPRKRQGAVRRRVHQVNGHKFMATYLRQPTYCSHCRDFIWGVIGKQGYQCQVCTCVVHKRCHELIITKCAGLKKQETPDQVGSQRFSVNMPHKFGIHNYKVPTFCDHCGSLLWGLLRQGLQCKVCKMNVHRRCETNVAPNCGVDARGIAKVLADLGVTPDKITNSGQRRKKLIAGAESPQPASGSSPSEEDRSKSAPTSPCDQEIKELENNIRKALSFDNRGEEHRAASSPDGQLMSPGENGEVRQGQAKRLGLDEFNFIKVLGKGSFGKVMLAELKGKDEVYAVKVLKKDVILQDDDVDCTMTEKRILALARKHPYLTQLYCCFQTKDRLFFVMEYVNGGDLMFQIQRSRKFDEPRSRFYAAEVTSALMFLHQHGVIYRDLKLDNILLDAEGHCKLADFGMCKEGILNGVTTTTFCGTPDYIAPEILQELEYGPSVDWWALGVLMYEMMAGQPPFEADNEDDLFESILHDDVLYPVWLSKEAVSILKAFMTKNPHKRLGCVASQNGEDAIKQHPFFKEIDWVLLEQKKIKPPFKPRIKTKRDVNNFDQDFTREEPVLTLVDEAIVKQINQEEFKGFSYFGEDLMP
Procedure: as §1

[3] = system: IMR-32 human neuroblastoma cells
Procedure: The ability of compounds PKI 1, PKI 2 and PKI 3 to inhibit cancer cell proliferation was tested in vitro using the human neuroblastoma cell line IMR-32. Monolayer cell cultures were trypsinized and the test compound was added at the doses indicated in Table 24 and internalized by pinocytic endocytosis using Influx TM pinocytic cell-loading reagent, a kit from Molecular Probes (Eugene, Oreg.) following the manufacturer's recommendations. The indicated doses refer to the concentration in the loading medium, which was used on 1×10^6 cells in a 10 μl volume, i.e. contained 10 μg to 100 ug of test compound that provides […] per cell. […] The cells were treated on day 0 of the experiment. The cells loaded with test compound were cultured in 96 well plates (5,000 cells in 100 μl per well), and the proliferation was monitored over 3 consecutive days. The increase in cell population was quantified using a Hoechst reagent-based assay (modified from Rao and Otto, 1992, Analytical Biochem. 207:186-192) that measures the total DNA of the population. Fluorescence was measured using a Millipore CytoFluor 2350 plate reader (excitation at 360 nm and emission at 460 nm). The measurements were obtained as relative fluorescence intensity, a value that is directly correlated to the total number of cells. Data are expressed as a percentage of matching controls that were supplemented with culture medium alone.
The ability of the compound TIM 9 to inhibit cancer cell proliferation was tested in vitro using the human neuroblastoma cell line IMR-32 and following the general protocol described in Example 14.
The ability of the compound TIM 11 to inhibit IMR-32 cancer cell proliferation was tested in vitro following the general protocol described in Example 14.
The ability of the compound TIM 10 to inhibit cancer cell proliferation was tested in vitro using the human neuroblastoma IMR-32 cell line and following the general protocol described in Example 14.

[4] = 1.0 mg/mL in loading medium, 24 h
[5] = 1.0 mg/mL in loading medium, 48 h
[6] = 1.0 mg/mL in loading medium, 72 h
[7] = 2.5 mg/mL in loading medium, 24 h
[8] = 2.5 mg/mL in loading medium, 48 h
[9] = 2.5 mg/mL in loading medium, 72 h
[10] = 5.0 mg/mL in loading medium, 24 h
[11] = 5.0 mg/mL in loading medium, 48 h
[12] = 5.0 mg/mL in loading medium, 72 h
[13] = 10.0 mg/mL in loading medium, 24 h
[14] = 10.0 mg/mL in loading medium, 48 h
[15] = 10.0 mg/mL in loading medium, 72 h

T2 sequence (P05771 1-673 isoform P05771-2): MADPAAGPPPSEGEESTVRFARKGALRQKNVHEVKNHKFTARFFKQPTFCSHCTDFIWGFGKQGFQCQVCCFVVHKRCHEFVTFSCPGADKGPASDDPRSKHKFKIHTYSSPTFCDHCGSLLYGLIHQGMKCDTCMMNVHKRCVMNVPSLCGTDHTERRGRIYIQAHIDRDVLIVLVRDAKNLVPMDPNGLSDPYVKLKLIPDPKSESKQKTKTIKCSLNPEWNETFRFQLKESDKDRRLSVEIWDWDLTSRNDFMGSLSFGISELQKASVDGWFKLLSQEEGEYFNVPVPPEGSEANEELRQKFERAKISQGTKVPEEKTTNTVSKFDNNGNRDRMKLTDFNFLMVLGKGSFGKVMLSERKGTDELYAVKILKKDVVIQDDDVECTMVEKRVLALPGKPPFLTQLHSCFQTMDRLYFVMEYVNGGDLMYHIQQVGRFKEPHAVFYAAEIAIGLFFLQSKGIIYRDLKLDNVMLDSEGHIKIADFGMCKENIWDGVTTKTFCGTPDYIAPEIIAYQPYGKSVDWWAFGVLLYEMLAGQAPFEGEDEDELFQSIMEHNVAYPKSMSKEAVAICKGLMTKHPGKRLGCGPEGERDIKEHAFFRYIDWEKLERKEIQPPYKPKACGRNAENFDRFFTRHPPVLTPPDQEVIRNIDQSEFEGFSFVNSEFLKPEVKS
Sequence of PKC beta 1 (P05771 whole entry, canonical isoform): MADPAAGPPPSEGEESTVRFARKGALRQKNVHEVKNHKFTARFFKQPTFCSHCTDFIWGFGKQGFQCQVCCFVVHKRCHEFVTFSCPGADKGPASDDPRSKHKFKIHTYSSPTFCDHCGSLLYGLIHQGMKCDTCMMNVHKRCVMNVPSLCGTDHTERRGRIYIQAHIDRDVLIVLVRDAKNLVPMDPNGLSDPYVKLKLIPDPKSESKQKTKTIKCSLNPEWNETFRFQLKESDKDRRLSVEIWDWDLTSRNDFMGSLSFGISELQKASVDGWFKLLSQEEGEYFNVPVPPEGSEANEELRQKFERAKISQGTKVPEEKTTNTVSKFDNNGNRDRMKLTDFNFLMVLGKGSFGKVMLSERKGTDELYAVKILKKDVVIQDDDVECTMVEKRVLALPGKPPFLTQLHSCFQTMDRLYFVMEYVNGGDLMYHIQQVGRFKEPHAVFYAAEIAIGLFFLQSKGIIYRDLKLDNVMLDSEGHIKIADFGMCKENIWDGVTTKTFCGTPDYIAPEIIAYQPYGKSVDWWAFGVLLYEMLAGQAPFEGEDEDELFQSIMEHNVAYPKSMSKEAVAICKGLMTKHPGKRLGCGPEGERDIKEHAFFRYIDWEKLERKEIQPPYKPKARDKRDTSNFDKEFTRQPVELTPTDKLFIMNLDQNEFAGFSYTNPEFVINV
T1 sequence (Q05655 whole entry, canonical isoform): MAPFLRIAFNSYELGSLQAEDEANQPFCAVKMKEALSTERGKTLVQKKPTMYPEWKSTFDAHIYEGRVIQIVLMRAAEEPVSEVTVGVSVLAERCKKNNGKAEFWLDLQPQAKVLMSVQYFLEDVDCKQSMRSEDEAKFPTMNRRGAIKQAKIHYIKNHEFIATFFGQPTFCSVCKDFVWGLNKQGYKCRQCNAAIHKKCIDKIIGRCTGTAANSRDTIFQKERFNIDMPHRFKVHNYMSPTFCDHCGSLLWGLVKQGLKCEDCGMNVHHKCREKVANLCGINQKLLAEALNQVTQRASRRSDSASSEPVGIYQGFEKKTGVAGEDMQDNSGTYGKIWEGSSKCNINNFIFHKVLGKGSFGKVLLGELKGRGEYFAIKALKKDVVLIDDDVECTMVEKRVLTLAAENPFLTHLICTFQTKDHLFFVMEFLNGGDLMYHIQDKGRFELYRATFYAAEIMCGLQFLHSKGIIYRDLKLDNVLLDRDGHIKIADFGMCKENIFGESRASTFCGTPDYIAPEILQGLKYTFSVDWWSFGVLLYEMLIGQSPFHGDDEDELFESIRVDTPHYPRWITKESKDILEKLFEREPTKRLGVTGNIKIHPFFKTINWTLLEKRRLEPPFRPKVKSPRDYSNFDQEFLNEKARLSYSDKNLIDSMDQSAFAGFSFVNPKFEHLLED

Compound	inhibition at 150 µM (PKC beta 2) [%]	inhibition at 300 µM (PKC beta 2) [%]	inhibition at 600 µM (PKC beta 2) [%]	inhibition at 150 µM (PKC delta [2]) [%]	inhibition at 300 µM (PKC delta [2]) [%]	inhibition at 600 µM (PKC delta [2]) [%]	inhibition at 150 µM (PKC alpha) [%]	inhibition at 300 µM (PKC alpha) [%]	inhibition at 600 µM (PKC alpha) [%]	inhibition at 150 µM (PKC zeta) [%]	inhibition at 300 µM (PKC zeta) [%]	inhibition at 600 µM (PKC zeta) [%]	inhibition at 150 µM (PKC beta 1) [%]	inhibition at 300 µM (PKC beta 1) [%]	inhibition at 600 µM (PKC beta 1) [%]	inhibition at 150 µM (PKC epsilon) [%]	inhibition at 300 µM (PKC epsilon) [%]	inhibition at 600 µM (PKC epsilon) [%]	% Inhibition of IMR-32 proliferation [3, 4] [%]	% Inhibition of IMR-32 proliferation [3, 5] [%]	further results
Ac—FRRCFRL—(G)7—RRKKGGKDFVVKR—NH2 (Ac-FRRCFRLGGGGGGGRRKKGGKDFVVKR-NH2) [TIM 20, PRE 1 and PKI 4]	–	–	–	–	–	–	–	–	–	–	–	–	–	–	–	–	–	–	–	–	% Inhibition PKC-δ (PKC delta [1]; 5.0 μM): 46.0%; % Inhibition PKC-δ (PKC delta [1]; 30.0 μM): 45.4%; inhibition of PKC delta activity (in words) (PKC delta [1]; Kinase-Glo): good specificity for PKC delta
CC(=O)N[C@@H](CC(C)C)C(=O)N[C@@H](CCCNC(=N)N)C(=O)N[C@@H](CCCNC(=N)N)C(=O)N[C@@H](C)C(=O)N[C@@H](CCCCNC(=O)CN(CCN)C(=O)Cn1cnc2c(N)ncnc21)C(=O)N[C@@H](CC(C)C)C(=O)NCC(N)=O [PKI 2] (Ac-LRRAK(PNA(A))LG-NH2; C-terminus assumed)	-59	61	74	59	79	84	-24	35	83	0	6	20	18	52	70	58	67	84	49	51	% Inhibition of IMR-32 proliferation [3, 6]: 10%; % Inhibition of IMR-32 proliferation [3, 7]: 29%; % Inhibition of IMR-32 proliferation [3, 8]: 21%; % Inhibition of IMR-32 proliferation [3, 9]: 26%; % Inhibition of IMR-32 proliferation [3, 10]: 31%; % Inhibition of IMR-32 proliferation [3, 11]: 20%; % Inhibition of IMR-32 proliferation [3, 12]: 17%; % Inhibition of IMR-32 proliferation [3, 13]: 31%; % Inhibition of IMR-32 proliferation [3, 14]: 29%; % Inhibition of IMR-32 proliferation [3, 15]: 21%
CC[C@H](C)[C@H](NC(=O)[C@H](CSSC[C@H](NC(=O)CNC(=O)CN(CCN)C(=O)Cn1cnc2c(N)ncnc21)C(=O)N[C@@H](CCCCN)C(=O)NCC(=O)N[C@@H](CCCCN)C(=O)N[C@@H](Cc1ccccc1)C(=O)N[C@@H](CCCCN)C(=O)N[C@@H](CCCNC(=N)N)C(N)=O)NC(=O)[C@H](Cc1c[nH]cn1)NC(C)=O)C(=O)NCC(=O)N[C@@H](CCCNC(=N)N)C(=O)N[C@@H](Cc1ccccc1)C(=O)N[C@@H](CCCCN)C(N)=O [PKI 1] (I: Adenin9ylacetyl-[Gly(N-2-aminoethyl)]GCKGKFKR-NH2 / II: Ac-HCIGRFK-NH2; disulfide I:3-II:2; C-terminus assumed)	78	90	92	56	61	88	78	84	87	15	10	20	71	92	93	54	58	83	–	–	–
CC(=O)N[C@@H](Cc1ccccc1)C(=O)N[C@@H](CCCNC(=N)N)C(=O)N[C@@H](CCCNC(=N)N)C(=O)N[C@@H](CCCCNC(=O)CN(CCN)C(=O)Cn1cnc2c(N)ncnc21)C(=O)N[C@@H](Cc1ccccc1)C(=O)N[C@@H](CCCNC(=N)N)C(=O)N[C@@H](CC(C)C)C(N)=O [PKI 3] (Ac-FRRK(PNA(A))FRL-NH2; C-terminus assumed)	31	83	81	32	41	70	47	51	82	37	40	56	37	76	80	38	53	68	70	72	% Inhibition of IMR-32 proliferation [3, 6]: 72%; % Inhibition of IMR-32 proliferation [3, 7]: 26%; % Inhibition of IMR-32 proliferation [3, 8]: 29%; % Inhibition of IMR-32 proliferation [3, 9]: 14%; % Inhibition of IMR-32 proliferation [3, 10]: 29%; % Inhibition of IMR-32 proliferation [3, 11]: 31%; % Inhibition of IMR-32 proliferation [3, 12]: 22%; % Inhibition of IMR-32 proliferation [3, 13]: 26%; % Inhibition of IMR-32 proliferation [3, 14]: 30%; % Inhibition of IMR-32 proliferation [3, 15]: 22%
